Experiments:
Type in all cases: functional, cell-based
A-375 = assay: Antiproliferative activity against human A375 cells after 72 hrs by MTT assay; settings: A-375, 72 h
PANC-1 = assay: Antiproliferative activity against human PANC1 cells after 72 hrs by MTT assay; settings: PANC-1, 72 h
ASPC1 = assay: Antiproliferative activity against human AsPC1 cells after 72 hrs by MTT assay; settings: ASPC1, 72 h
[1] = Antiproliferative activity against human WM35 cells after 72 hrs by MTT assay; settings: WM35, 72 h
HL-60 = assay: Antiproliferative activity against human HL60 cells after 72 hrs by MTT assay; settings: HL-60, 72 h

IC50 (A-375): 0.2 nM
IC50 (PANC-1): 1.1 nM
IC50 (ASPC1): 0.7 nM
IC50 (HL-60): 0.1 nM
Structure (SMILES): COc1ccc(C(=O)O[C@H]2[C@H](O[C@@H]3[C@@H](O)[C@H](O[C@H]4C[C@H]5[C@@H]6CC=C7C[C@@H](OC(=O)CCCCCCCNC(=O)CCCC[C@@H]8SC[C@@H]9NC(=O)N[C@@H]98)CC[C@]7(C)[C@H]6CC[C@]5(C)[C@@]4(O)[C@H](C)C(=O)CCC(C)C)OC[C@@H]3O)OC[C@@H](O)[C@@H]2O)cc1
IC50 [1]: 0.2 nM
